Results: patent US5073641A, “Prodrug derivatives of carboxylic acid drugs” (priority 1986, dated 1991)
In brackets after ≈: the same amount, converted by molar mass. Where a name gives a salt, the structure may show the parent alone. Blank lines part the entries; values can stand above or below the compound they belong to.

How the values were obtained:
[1] = Hydrolysis of ester prodrugs in human plasma solutions (HPLC); conditions: for half-life: pH 7.4; for kinetics (order) of hydrolysis in human plasma: 80% human plasma at 37° C., initial concentration about 10^-4 M
Method: Solutions of various derivatives of this invention in aqueous buffer solutions or 50-80% human plasma solutions (pH 7.4) were kept at 37° C. The initial concentration of the derivatives was in the range 3×10^-4 -10^-5 M. At various times an aliquot of the solutions was withdrawn and analyzed by HPLC for remaining derivative as well as for parent acid. For the plasma solutions the aliquot withdrawn was deproteinized with methanol, ethanol or acetonitrile and after centrifugation, the clear supernatant was injected on HPLC.
An HPLC method was used for the determination of the ester derivatives and their parent acids. In this method a reversed-phase LiChrosorb RP-8 column (250×4 mm) was eluted at ambient temperature with mixtures of methanol and 0.01M acetate buffer pH 5.0, methanol and 0.01M phosphate buffer pH 4.5 or methanol and 0.02M phosphate buffer pH 3.5. the composition of the eluant was adjusted for each compound in order to provide an appropriate retention time and separation of ester and the corresponding acid. The flow-rate was 0.6-1.6 ml/min and the column effluent was monitored spectrophotometrically at an appropriate wavelength. Quantitation of the compounds was done by measurement of the peak heights in relation to those of standards chromatographed under the same conditions.

[2] = Solubility in water or aqueous solutions; conditions: for solubility: water
[3] = not given; remark: listed apart in the source
[4] = Hydrolysis in aqueous buffer solution pH 7.4; assay type: physicochemical; conditions: pH 7.4, 37° C., read-out: half-life of hydrolysis in pure buffer solution
[5] = Stability in acidic media (0.01M HCl); assay type: physicochemical; conditions: 37° C., read-out: hydrolysis in 0.01M HCl
[6] = cited from earlier work
[7] = cited from earlier work; remark: listed apart in the source
[8] = Oral bioavailability study in rabbits (plasma concentrations); assay type: in vivo

SMILES: CCN(CC)C(=O)COC(=O)c1ccccc1Nc1cccc(Cl)c1C [Example 66]
half-life ([1]; 80% plasma): 5 min
half-life ([1]; plasma): 5 min

SMILES: COC(=O)CCC(=O)c1ccc(-c2ccccc2)cc1 [Fenbufen methyl ester, reference compound]
half-life ([1]; 80% plasma): 282 min

SMILES: CCN(CCO)C(=O)COC(=O)c1ccccc1Nc1cccc(Cl)c1C [Example 67]
half-life ([1]; plasma): 3 min

SMILES: CCN(CC)C(=O)COC(=O)c1ccccc1 [Example 10, 2-(benzoyloxy)-N,N-diethylacetamide]
S, solubility in water: 2000 µg/mL
half-life [4]: > 41.7 days
degraded at 3 h [5]: < 1%

SMILES: CCN(CC)C(=O)COC(=O)CCC(=O)c1ccc(-c2ccccc2)cc1 [Example 61]
half-life ([1]; 80% plasma): 3.8 min
half-life ([1]; plasma): 3.8 min

SMILES: CC(C)Cc1ccc(C(C)C(=O)OCC(=O)N(C)CC(N)=O)cc1 (stereo not drawn) [Example 41, 2-[α-METHYL-4-(2-METHYLPROPYL)BENZENEACETYLOXY]-(N-METHYL-N-CARBAMOYLMETHYL)ACETAMIDE]
half-life ([1]; plasma): 9.6 min

SMILES: COc1ccc2c(c1)c(CC(=O)OCC(=O)N(C)CCO)c(C)n2C(=O)c1ccc(Cl)cc1 [Example 63]
half-life ([1]; plasma): 140 min

SMILES: CN(CC(N)=O)C(=O)COC(=O)c1ccccc1O [Example 37, 2-[2-HYDROXYBENZOYLOXY]-(N-METHYL-N-CARBAMOYLMETHYL)-ACETAMIDE]
half-life ([1]; plasma): 0.33 min

SMILES: COc1ccc2cc([C@H](C)C(=O)OCC(=O)N(C)C)ccc2c1 [Example 52]
half-life ([1]; plasma): 1.5 min

SMILES: CCOC(=O)[C@H](CCc1ccccc1)N[C@@H](C)C(=O)N1CCC[C@H]1C(=O)O [Enalapril]
hydrolysis by plasma enzymes / stability in plasma [6]: Plasma enzymes do not hydrolyze the ester
availability of the active parent acid ([7]; Todd & Heel, 1986): incomplete availability of the active parent acid

SMILES: CN(C)C(=O)COC(=O)c1ccccc1O [Example 79]
half-life ([1]; plasma): 0.08 min

SMILES: CC(C)Cc1ccc(C(C)C(=O)OCC(=O)N(C)CC(=O)NCN2CCOCC2)cc1 (stereo not drawn) [Example 51, 2-[α-METHYL-4-(2-METHYLPROPYL)BENZENEACETYLOXY]-(N-METHYL-N-(N'-MORPHOLINOMETHYLCARBAMOYL)METHYL)ACETAMIDE HYDROCHLORIDE]
half-life ([1]; plasma): 10.8 min

SMILES: CCN(CC)C(=O)COC(=O)CC1=C(C)/C(=C/c2ccc([S+](C)[O-])cc2)c2ccc(F)cc21 (centres unmarked) [Example 73]
half-life ([1]; plasma): 26 min

SMILES: CC(C(=O)OCC(=O)N(C)C)c1cccc(C(=O)c2ccccc2)c1 (centres unmarked) [Example 55]
half-life ([1]; plasma): 1.1 min

SMILES: CCOC(=O)[C@@H](N)Cc1ccc(O)cc1 [L-Tyrosine ethyl ester, reference compound]
half-life ([1]; 80% plasma): 59 min

SMILES: CC(C(=O)OCC(=O)N(C)CC(N)=O)c1cccc(C(=O)c2ccccc2)c1 (centres unmarked) [Ketoprofen (R1=CH3, R2=CH2CONH2)]
kinetics (order) of hydrolysis in human plasma [1]: first-order kinetics
half-life ([1]; plasma): 2.3 min

SMILES: CCN(CC)C(=O)COC(=O)C(C)c1cccc(C(=O)c2ccccc2)c1 (centres unmarked) [Example 56]
half-life ([1]; 80% plasma): 0.5 min
half-life ([1]; plasma): 0.5 min

SMILES: COc1ccc2cc([C@H](C)C(=O)OCC(=O)N(C)CC(N)=O)ccc2c1 [Example 53]
half-life ([1]; plasma): 2.5 min

SMILES: COC(=O)c1ccc(O)cc1 [4-Hydroxybenzoic acid methyl ester, reference compound]
half-life ([1]; 80% plasma): > 3000 min

SMILES: CN(CC(N)=O)C(=O)COC(=O)Cc1ccc(-c2ccccc2)cc1 [Example 57]
half-life ([1]; plasma): 2.1 min

SMILES: CC(C)Cc1ccc(C(C)C(=O)OCC(=O)N(C)C)cc1 (centres unmarked) [Example 54]
half-life ([1]; plasma): 8.6 min

SMILES: CCN(CC)C(=O)COC(=O)[C@@H](C)c1ccc2cc(OC)ccc2c1 [Example 35, 2-[(+)-6-METHOXY-α-METHYL-2-NAPHTHALENEACETYLOXY]-N,N-[…]]
kinetics (order) of hydrolysis in human plasma [1]: first-order kinetics

SMILES: CCOC(=O)[C@H](C)C[C@@H](C)C(=O)N1c2ccccc2C[C@H]1C(=O)O [Pentopril]
hydrolysis by plasma enzymes / stability in plasma [6]: highly stable in human plasma
part of oral dose deesterified in vivo to the active parent acid ([7]; oral, Rakhit & Tipnis, 1985): less than 50%

SMILES: CCN(CC)C(=O)COC(=O)c1cc(-c2ccc(F)cc2F)ccc1O [Example 70]
half-life ([1]; plasma): 79 min

SMILES: CCN(CC)C(=O)COC(=O)C(C)c1ccc(-c2ccccc2)c(F)c1 (centres unmarked) [Example 59]
half-life ([1]; plasma): 4.7 min

SMILES: COC(=O)c1ccccc1Nc1cccc(Cl)c1C [Tolfenamic acid methyl ester, reference compound]
half-life ([1]; 80% plasma): 6000 min

SMILES: COC(=O)Cc1c(C)n(C(=O)c2ccc(Cl)cc2)c2ccc(OC)cc12 [Indomethacin methyl ester, reference compound]
half-life ([1]; 80% plasma): 9000 min

SMILES: CC(C(=O)OCC(=O)N(C)C)c1ccc(-c2ccccc2)c(F)c1 (centres unmarked) [Example 58]
half-life ([1]; plasma): 10.8 min

SMILES: Cc1c(Cl)cccc1Nc1ccccc1C(=O)OCC(=O)N(C)C [Example 65]
half-life ([1]; plasma): 2.8 min

SMILES: CCOC(=O)c1ccc(N)cc1 [4-Aminobenzoic acid ethyl ester, reference compound]
half-life ([1]; 80% plasma): > 6000 min

SMILES: CCN(CC)C(=O)COC(=O)Cc1ccc(C(=O)c2ccc(C)cc2)n1C [Tolmetin (R1=C2H5, R2=C2H5)]
half-life ([1]; 80% plasma): 13.4 min
half-life ([1]; plasma): 13.4 min

SMILES: COc1ccc2c(c1)c(CC(=O)OCC(=O)N(CCO)CCO)c(C)n2C(=O)c1ccc(Cl)cc1 [Example 64]
half-life ([1]; plasma): 88 min

SMILES: CCN(CC)C(=O)COC(=O)c1ccccc1O [Example 80]
half-life ([1]; 80% plasma): 0.08 min
half-life ([1]; plasma): 0.08 min

SMILES: COc1ccc2cc([C@H](C)C(=O)OCC(=O)N(CCO)CCO)ccc2c1 [Example 44, 2-[(+)-6-METHOXY-α-METHYL-2-NAPHTHALENEACETYLOXY]-N,N-(DI-β-HYDROXYETHYL)ACETAMIDE]
absorption following oral administration [8]: efficiently absorbed
conversion of prodrug to naproxen in vivo [8]: rapidly converted back to naproxen in vivo
plasma concentration of intact naproxen prodrug ([8]; equivalent of 4.8 mg/kg naproxen): < 100 ng/mL
solubility in 0.01M HCl relative to parent naproxen ([2]; 0.01M HCl, versus naproxen): more than 20 -fold

SMILES: CN(C)C(=O)COC(=O)CCC(=O)c1ccc(-c2ccccc2)cc1 [Example 60]
half-life ([1]; plasma): 9.2 min

SMILES: COC(=O)Cc1ccc(C(=O)c2ccc(C)cc2)n1C [Tolmetin methyl ester, reference compound]
half-life ([1]; 80% plasma): 1140 min

SMILES: Br.CCN(CC)C(=O)COC(=O)[C@@H](N)Cc1ccccc1 [Example 38]
kinetics (order) of hydrolysis in human plasma [1]: first-order kinetics

SMILES: COC(=O)[C@H]1CC[C@H](CN)CC1 [Tranexamic acid methyl ester, reference compound]
half-life ([1]; 80% plasma): > 180 min

Further lines, results first:

S, solubility in water: 720000 µg/mL
solubility [2]: > 700000 µg/mL
SMILES: O=C(OCC(=O)N(CCO)CCO)c1ccccc1 [Example 17, 2-(benzoyloxy)-N-N-(di-β-hydroxyethyl)acetamide]

solubility [2]: 1500 µg/mL (≈ 5.43 mM)
log P (partition coefficient between octanol and water) [3]: 0.20
half-life ([1]; 50% plasma): 2.3 min
SMILES: NC(=O)[C@@H]1CCCN1C(=O)COC(=O)c1ccccc1

solubility [2]: 6300 µg/mL (≈ 27 mM)
half-life ([1]; 50% plasma): 5.7 min
SMILES: O=C(OCC(=O)N1CCCC1)c1ccccc1

solubility [2]: 780 µg/mL (≈ 3.15 mM)
log P (partition coefficient between octanol and water) [3]: 1.95
half-life ([1]; 50% plasma): 2.5 min
SMILES: O=C(OCC(=O)N1CCCCC1)c1ccccc1

solubility [2]: > 100000 µg/mL
half-life ([1]; 50% plasma): 12.7 min
SMILES: CN1CCN(C(=O)COC(=O)c2ccccc2)CC1

half-life ([1]; 50% plasma): 407 min
SMILES: O=C(OCC(=O)N(C1CCCCC1)C1CCCCC1)c1ccccc1 [Example 20]

solubility [2]: 490 µg/mL (≈ 1.98 mM)
log P (partition coefficient between octanol and water) [3]: 1.83
half-life ([1]; 50% plasma): 18 min
SMILES: O=C(OCC(=O)N1CCCC1=O)c1ccccc1

half-life ([1]; 50% plasma): 0.25 min
SMILES: COCCN(CCOC)C(=O)COC(=O)c1ccccc1 [Example 23b]

solubility [2]: > 200000 µg/mL
half-life ([1]; 50% plasma): 0.08 min
SMILES: CN(C)CC(=O)OCCN(C)C(=O)COC(=O)c1ccccc1 [R1=CH3, R2=CH2CH2OOCCH2N(CH3)2, n=1]

half-life ([1]; 50% plasma): 1.9 min
SMILES: COC(=O)[C@@H]1CCCN1C(=O)COC(=O)c1ccccc1

solubility [2]: 150 µg/mL (≈ 0.545 mM)
half-life ([1]; 50% plasma): 0.4 min
SMILES: CC1CCCC(C)N1C(=O)COC(=O)c1ccccc1 (centres unmarked)

solubility [2]: 5400 µg/mL (≈ 24.6 mM)
half-life ([1]; 50% plasma): 0.83 min
SMILES: O=C(OCC(=O)N1CCC1)c1ccccc1

half-life ([1]; plasma): 22 min
SMILES: CN1CCN(C(=O)COC(=O)c2ccccc2O)CC1 [Salicylic acid]

solubility [2]: 4200 µg/mL (≈ 16.8 mM)
log P (partition coefficient between octanol and water) [3]: 0.90
half-life ([1]; 50% plasma): 4.9 min
SMILES: O=C(OCC(=O)N1CCOCC1)c1ccccc1

half-life ([1]; 50% plasma): 5.8 min
SMILES: O=C(OCC(=O)N1CCC(O)CC1)c1ccccc1

half-life ([1]; 50% plasma): 5.6 min
SMILES: CN(C)C(=O)CCOC(=O)c1ccccc1 [Example 21]

S, solubility in water: 80 µg/mL
SMILES: CCCCN(CCCC)C(=O)COC(=O)c1ccccc1 [Example 14]

solubility [2]: 81 µg/mL (≈ 0.278 mM)
half-life ([1]; 50% plasma): < 1.5 min
SMILES: CC(C)CN(CC(C)C)C(=O)COC(=O)c1ccccc1 [Example 15]

half-life ([1]; 50% plasma): 0.1 min
SMILES: CCN(C)C(=O)COC(=O)c1ccccc1 [Example 9]

S, solubility in water: 710 µg/mL
log P (partition coefficient between octanol and water) [3]: 2.34
half-life ([1]; 50% plasma): 0.08 min
SMILES: C=CCN(CC=C)C(=O)COC(=O)c1ccccc1 [Example 13]

solubility [2]: 750 µg/mL (≈ 2.87 mM)
half-life ([1]; 50% plasma): 1 min
SMILES: O=C(OCC(=O)N1CCCCCC1)c1ccccc1

solubility [2]: > 100000 µg/mL
t1/2, half-life of hydrolysis in 50% human plasma ([1]; 50% human plasma (pH 7.4) at 37° C.): 0.12 min
SMILES: CN(C)CCN(C)C(=O)COC(=O)c1ccccc1 [Example 23a]
